Laboratory results reported in US10051863B2, “Methods for apple scab control” (Valent U.S.A., Corporation, priority 2015, dated 2018).

Columns and labels:
apple scab = conditions: background statement, cited from earlier work
[1] = test system: apple scab caused by Venturia inaequalis; assay: Example 1: bark spray on apple trees, apple leaf scab incidence, severity and % control; type: in vivo; design: Apple leaf scab severity: scale not given here; Apple Leaf scab incidence: unit not given here; conditions: for Apple Leaf scab incidence / Apple leaf % control / Apple leaf scab severity: bark spray
Description: (§1) Applicant conducted the following study to determine the effect of a 3-(difluoromethyl)-1-methyl-N-[(3R)-1,1,3-trimethyl-2,3-dihydroinden-4-yl]pyrazole-4-carboxamide bark spray application on common fungal infections in apple and pear trees. Applications were made in late February with a CO2 charged, single-tip hand sprayer. Treatments were applied as a spray to the lower 3 to 4 feet of the tree trunks all the way around the tree. The tree trunks were sprayed until they were wet. If the treatments included a surfactant (see tables), then the treatments included a surfactant at a rate of 3 fl oz/gallon of the spray mix. The apple trees were at bed swell stage. The apple tree trunks were about 5 to 8 inches in diameter. The pear trees were at mid-petal fall with some green leaves emerging. The pear tree trunks were about 10 to 12 inches in diameter. The following rates in grams per active/cm diameter tree trunk are based on an average trunk diameter. A large amount of apple scab naturally developed during this growing season in this location. The effects of the treatments on apple leaf phytotoxicity, apple leaf apple scab incidence, apple leaf scab severity, and apple leaf percent control were observed 113 and 169 days after treatment (“DAT”). The results of this study are below in Tables 1 and 2.

apple trees [2] = assay: Example 1: apple leaf phytotoxicity after bark spray; type: in vivo; design: scale not given here
Description: as §1

Fabraea leaf spot = assay: Example 1: bark spray on pear trees, Fabraea leaf spot control; type: in vivo; conditions: bark spray at mid-petal fall, at this rate and time of development
Description: as §1

Alternaria leaf spot = assay: Example 1: bark spray on pear trees, Alternaria leaf spot control; type: in vivo; conditions: bark spray at mid-petal fall, at this rate and time of development
Description: as §1

[3] = test system: apple scab caused by Venturia inaequalis; assay: Example 2: apple tree trunk treatment, leaf and fruit pest incidence and severity; type: in vivo
Description: (§2) In this study, the 3-(difluoromethyl)-1-methyl-N-[(3R)-1,1,3-trimethyl-2,3-dihydroinden-4-yl]pyrazole-4-carboxamide treatment was applied at the time of bud swell in mid March on apple tree trunks (treatment 5). The result of this treatment was compared to metconazole treatments applied when the apple trees were dormant (treatments 2 and 3), at the time of bud swell (treatment 4), and a foliar spray applied after petal fall (treatment 6). The control treatment (treatment 1) was applied during bud swell, as well. Four trees were subjected to each treatment.

apple trees [4] = assay: Example 2: phytotoxicity on apple trees; type: in vivo
Description: as §2

Water solubility = type: physicochemical
[5] = 113 DAT, 0.003 grams active/cm trunk diameter + 2.3% V/V surfactant
[6] = 113 DAT, 0.03 grams active/cm trunk diameter + 2.3% V/V surfactant
[7] = 169 DAT, 0.003 grams active/cm trunk diameter + 2.3% V/V surfactant
[8] = 169 DAT, 0.03 grams active/cm trunk diameter + 2.3% V/V surfactant
[9] = first fruit pest, treatment 5, applied at the time of bud swell in mid March on apple tree trunks, 0.003 grams active/cm trunk diameter + 2.3% V/V surfactant
[10] = treatment 5, applied at the time of bud swell in mid March on apple tree trunks, 0.003 grams active/cm trunk diameter + 2.3% V/V surfactant
[11] = 113 DAT, 1.16 grams active/cm trunk diameter + 2.3% V/V surfactant
[12] = 169 DAT, 1.16 grams active/cm trunk diameter + 2.3% V/V surfactant
[13] = 113 DAT, 0.86 grams active/cm trunk diameter + 2.3% V/V surfactant
[14] = 113 DAT, 1.72 grams active/cm trunk diameter + 2.3% V/V surfactant
[15] = 113 DAT, 3.44 grams active/cm trunk diameter + 2.3% V/V surfactant
[16] = 169 DAT, 0.86 grams active/cm trunk diameter + 2.3% V/V surfactant
[17] = 169 DAT, 1.7 grams active/cm trunk diameter + 2.3% V/V surfactant
[18] = 169 DAT, 3.4 grams active/cm trunk diameter + 2.3% V/V surfactant
[19] = first fruit pest, treatment 2, applied when apple trees dormant, 1.72 grams active/cm trunk diameter + 2.3% V/V surfactant
[20] = first fruit pest, treatment 3, applied when apple trees dormant, 1.72 grams active/cm trunk diameter + 2.3% V/V surfactant
[21] = first fruit pest, treatment 4, applied at the time of bud swell, 1.72 grams active/cm trunk diameter + 2.3% V/V surfactant
[22] = first fruit pest, treatment 6, foliar spray applied after petal fall, 4 oz pr/A, surfactant not given
[23] = treatment 2, applied when apple trees dormant, 1.72 grams active/cm trunk diameter + 2.3% V/V surfactant
[24] = treatment 3, applied when apple trees dormant, 1.72 grams active/cm trunk diameter + 2.3% V/V surfactant
[25] = treatment 4, applied at the time of bud swell, 1.72 grams active/cm trunk diameter + 2.3% V/V surfactant
[26] = treatment 6, foliar spray applied after petal fall, 4 oz pr/A, surfactant not given

## O=C1C2CC=CCC2C(=O)N1SC(Cl)(Cl)Cl (centres unmarked) [Captan, N-trichtoromethylthiocyclohexene-1,2-dicarboximide]
Apple scab
  systemic control activity: no systemic control activity
Apple scab; contact fungicide
  effectiveness against apple scab: effective against apple scab

## C[C@@H]1CC(C)(C)c2cccc(NC(=O)c3cn(C)nc3C(F)F)c21 [3-(Difluoromethyl)-1-methyl-N-[(3R)-1,1,3-trimethyl-2,3-dihydroinden-4-yl]pyrazole-4-carboxamide]
[1]; [5]
  Apple Leaf scab incidence: 20
  Apple leaf % control: 88.3%
  Apple leaf scab severity: 13.8
[1]; [6]
  Apple Leaf scab incidence: 23
  Apple leaf % control: 80%
  Apple leaf scab severity: 16.3
[1]; [7]
  Apple Leaf scab incidence: 13.75
  Apple leaf % control: 43.8%
  Apple leaf scab severity: 7
[1]; [8]
  Apple Leaf scab incidence: 13.75
  Apple leaf % control: 46.3%
  Apple leaf scab severity: 4.5
[1]; combined with a surfactant and applied as a bark spray, as compared to metconazole and propiconazole
  activity against apple scab caused by Venturia inaequalis: excellent activity
Apple trees [2]; [5]
  Apple Leaf Phytotoxicity: 0
Apple trees [2]; [6]
  Apple Leaf Phytotoxicity: 0
Apple trees [2]; [7]
  Apple Leaf Phytotoxicity: 0
Apple trees [2]; [8]
  Apple Leaf Phytotoxicity: 0
Fabraea leaf spot
  control of Fabraea leaf spot: failed to provide adequate control
Alternaria leaf spot
  control of Alternaria leaf spot: failed to provide adequate control
[3]; [9]
  Fruit pest incidence: 10.25
  Fruit pest severity: 0.638
[3]; [10]
  Fruit pest incidence: 0.33
  Fruit pest severity: 0.183
  Leaf pest incidence: 0.25
  Leaf pest severity: 0.3
Apple trees [4]; [10]
  Phytotoxicity: 0
Water solubility
  water solubility: low water solubility

## CCCC1COC(Cn2cncn2)(c2ccc(Cl)cc2Cl)O1 (centres unmarked) [Propiconazole + Surfactant, propiconazole]
[1]; [11]
  Apple Leaf scab incidence: 18.78
  Apple leaf % control: 68.3%
  Apple leaf scab severity: 8.3
[1]; [12]
  Apple Leaf scab incidence: 13.38
  Apple leaf % control: 36.3%
  Apple leaf scab severity: 4.63
Apple trees [2]; [11]
  Apple Leaf Phytotoxicity: 0
Apple trees [2]; [12]
  Apple Leaf Phytotoxicity: 0

## CC1(C)CCC(Cc2ccc(Cl)cc2)C1(O)Cn1cncn1 (centres unmarked) [Metconazole + Surfactant, metconazole]
[1]; [13]
  Apple Leaf scab incidence: 12.5
  Apple leaf % control: 80%
  Apple leaf scab severity: 10
[1]; [14]
  Apple Leaf scab incidence: 18
  Apple leaf % control: 68.8%
  Apple leaf scab severity: 18.3
[1]; [15]
  Apple Leaf scab incidence: 11.25
  Apple leaf % control: 80%
  Apple leaf scab severity: 13.3
[1]; [16]
  Apple Leaf scab incidence: 18.88
  Apple leaf % control: 31.3%
  Apple leaf scab severity: 4.25
[1]; [17]
  Apple Leaf scab incidence: 15.5
  Apple leaf % control: 27.5%
  Apple leaf scab severity: 4.75
[1]; [18]
  Apple Leaf scab incidence: 7.25
  Apple leaf % control: 62.5%
  Apple leaf scab severity: 2.75
Apple trees [2]; [13]
  Apple Leaf Phytotoxicity: 0
Apple trees [2]; [14]
  Apple Leaf Phytotoxicity: 0
Apple trees [2]; [15]
  Apple Leaf Phytotoxicity: 0
Apple trees [2]; [16]
  Apple Leaf Phytotoxicity: 0
Apple trees [2]; [17]
  Apple Leaf Phytotoxicity: 0
Apple trees [2]; [18]
  Apple Leaf Phytotoxicity: 0
[3]; [19]
  Fruit pest incidence: 33.75
  Fruit pest severity: 2.25
[3]; [20]
  Fruit pest incidence: 6.67
  Fruit pest severity: 0.333
[3]; [21]
  Fruit pest incidence: 14.00
  Fruit pest severity: 1.125
[3]; [22]
  Fruit pest incidence: 2.75
  Fruit pest severity: 0.263
[3]; [23]
  Fruit pest incidence: 45.0
  Fruit pest severity: 3.0
  Leaf pest incidence: 1.875
  Leaf pest severity: 5.0
[3]; [24]
  Fruit pest incidence: 10.0
  Fruit pest severity: 0.5
  Leaf pest incidence: 1.000
  Leaf pest severity: 1.7
[3]; [25]
  Fruit pest incidence: 18.67
  Fruit pest severity: 1.5
  Leaf pest incidence: 0.140
  Leaf pest severity: 2.0
[3]; [26]
  Fruit pest incidence: 3.67
  Fruit pest severity: 0.350
  Leaf pest incidence: 0.125
  Leaf pest severity: 0.8
Apple trees [4]; [23]
  Phytotoxicity: 0
Apple trees [4]; [24]
  Phytotoxicity: 0
Apple trees [4]; [25]
  Phytotoxicity: 0
Apple trees [4]; [26]
  Phytotoxicity: 0
